Source: patent US20160175249A1, “Liposomes Containing Oligopeptide Fragments of Myelin Basic Protein, a Pharmaceutical Composition and a Method for Treatment of Multiple Sclerosis” (LIPOXEN TECHNOLOGIES LIMITED, priority 2009, published 2016)

What was measured:
anti-MBP autoantibody = experiment: Serum anti-MBP autoantibody titer in EAE DA rats (Example 11); type: in vivo; details: EAE DA rats treated as in Example 10
Description: To determine anti-MBP autoantibody binding patters in sera from the EAE-induced rodent models and human MS patients, ELISA experiments were performed as follows. Microtiter plates (MaxiSorp-Nunc) were coated with 50 μl of a 10 μg/ml MBP solution or recombinant MBP peptides in 100 mM carbonate/bicarbonate buffer pH 9.0, in odd column wells. Plates were sealed with ELISA plate sealer (Costar) and incubated at 4° C. overnight and then washed (300 μl/well) three times with phosphate-buffered saline (PBS) containing 0.15% Tween-20. All the wells were then blocked with 250 μl 2% bovine serum albumin (BSA) (Sigma) in carbonate/bicarbonate buffer pH 9.0 and incubated for 1 hr at 37° C. The plates were washed with PBS containing 0.15% Tween-20. Serum antibodies were diluted in PBS containing 0.15% Tween-20 and 0.5% BSA at the final dilution of 1:1000-1:50000, and 50 μl of the diluted sample was added to each well of the plate. Rat anti-MBP monoclonal antibody (ab7349, Abcam) was used as control. […] The OD450 values were measured using a microplate reader Varioscan (Thermo, USA).
To investigate the immunological status of EAE induced DA rats after treatment with liposomally encapsulated MBP peptides, serum isolated from rats treated as described in Example 10 was analyzed for anti-MBP antibodies and CNS cytokine staining (FIG. 5). […]

EAE-induced DA rats = experiment: EAE-induced DA rat model, paralysis score and mortality (DA-EAE-28-02, Example 13); type: in vivo; details: 54 EAE induced DA rats; daily s.c. injection, 6 total; deaths/N
Description: Each of the eight MBP peptide formulations were provided as a lyophilized powder and stored at 4° C. Rehydration of each formulation with water for injection was done daily according to Table 10. MBP peptide formulations were re-suspended in water for injection (Cure Medical) and copaxone (Teva LTD) was diluted with saline to a final concentration of 450 μg/mL. Each subject animal was administered the test formulation for 6 consecutive days by subcutaneous injection.
8-9 week old Dark Agouti (DA) female rats (Harlan Laboratories, Inc.), weighing between 110 and 145 grams were used as the test subjects. The health status of the animals used in this study was examined on arrival. Only animals in good health were acclimatized to laboratory conditions and were used in the study. Animals were provided food ad libitum and free access to drinking water. […]
The rats were evaluated up daily starting 24 hours after immunization. […]
9-11 days post EAE induction, 54 animals were divided to 10 groups (5-6 rats in each), and blood was collected from 2 rats of each group before the initiation of the treatment. […] The animals were maintained and evaluated until day 28th post EAE-induction. […]
Animals were observed individually and clinical signs were recorded once daily during all study periods. […] The body weight of each animals was determined daily during all study periods. […]

Substance: glatiramer acetate [copaxone]
- Serum anti-MBP Antibody titer (anti-MBP autoantibody): 1.0 ± 0.1
- Mortality Rate (EAE-induced DA rats): 1/5
